The values below come from patent US10813944B2, “Cyclodextrins as procoagulants” (STICHTING SANQUIN BLOEDVOORZIENING, priority 2016, dated 2020).

In this experiment the test system is thrombin generation in pooled normal plasma spiked with anticoagulants. Nature of the experiment: Thrombin generation assay in pooled normal plasma spiked with anticoagulants. The experiment is classed as biochemical, human. To be noted: 1 pM TF. In a few lines:
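Pooled normal plasma spiked with cyclodextrins or OKL-1111 (typically 100 μM) plus anticoagulants at fixed levels (e.g., dabigatran, rivaroxaban 100 ng/ml; apixaban, edoxaban 60 ng/ml). Calibrated Automated Thrombogram triggered by recalcification with 1 pM tissue factor, 4 μM phospholipids and 417 μM Z-Gly-Gly-Arg-AMC; lag time, peak, velocity index and ETP derived.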

In the case of `O=C(O)CCCCCSCC1OC2OC3C(CSCCCCCC(=O)O)OC(OC4C(CSCCCCCC(=O)O)OC(OC5C(CSCCCCCC(=O)O)OC(OC6C(CSCCCCCC(=O)O)OC(OC7C(CSCCCCCC(=O)O)OC(OC8C(CSCCCCCC(=O)O)OC(OC9C(CSCCCCCC(=O)O)OC(OC1C(O)C2O)C(O)C9O)C(O)C8O)C(O)C7O)C(O)C6O)C(O)C5O)C(O)C4O)C(O)C3O` (stereo not drawn) [OKL-1111], the “restoring thrombin generation in plasma anticoagulated with unfractionated heparin” value (UFH 0.03 U/ml, OKL-1111 100 μM) is “capable of restoring thrombin generation”. In addition, under “apixaban 60 ng/ml, cyclodextrin 100 μM”, the “effect on the anticoagulant effect of apixaban” value is on record as “restoration of thrombin generation to levels far above that of non-anticoagulated plasma”. In addition, the “restoring thrombin generation in plasma anticoagulated with bivalirudin” value (bivalirudin 10 μg/ml, OKL-1111 100 μM) is recorded as “capable of restoring thrombin generation”. Besides, the “effect on the anticoagulant effect of dabigatran” value (dabigatran 100 ng/ml, cyclodextrin 100 μM) is given as “restoration of thrombin generation to levels far above that of non-anticoagulated plasma”. Further, the “effect on the anticoagulant effect of edoxaban” value (edoxaban 60 ng/ml, cyclodextrin 100 μM) was “restoration of thrombin generation to levels far above that of non-anticoagulated plasma”. Also, where the note is “fondaparinux 2 μg/ml, OKL-1111 100 μM”, the “restoring thrombin generation in plasma anticoagulated with pentasaccharide (arixtra)” value is “capable of restoring thrombin generation”. Besides, the “restoring thrombin generation in plasma anticoagulated with hirudin” value (hirudin 0.5 U/ml, OKL-1111 100 μM) was “capable of restoring thrombin generation”. In addition, the “restoring thrombin generation in plasma anticoagulated with low molecular weight heparin” value (nadroparin 0.4 U/ml, tinzaparin 0.1 U/ml, OKL-1111 100 μM) is “capable of restoring thrombin generation”. For the same molecule, the “effect on the anticoagulant effect of rivaroxaban” value (rivaroxaban 100 ng/ml, cyclodextrin 100 μM) is reported as “restoration of thrombin generation to levels far above that of non-anticoagulated plasma”.
